Experimental data reported in PMC11892739, “Site-specific molecular glues for the 14-3-3/Tau pS214 protein–protein interaction via reversible covalent imine tethering” (RSC Medicinal Chemistry, 2025).

Biological target: T1, 14-3-3/Pin1 complex (Homo sapiens, UniProt P63104)
T1 construct: made in house; host or cells: NiCo21 (DE3) E. coli
Assay: FA peptide screen, 14-3-3ζ titration to client peptide and compound: Pin1
Format: binding
Conditions: 250 μM compound
Procedure: Since the hub protein 14-3-3 binds to hundreds of phosphoprotein partners, selectivity of PPI stabilization is a major challenge. The interplay of chemical reactivity, and the topology and functionality of the composite binding pocket shaped by 14-3-3 and Tau potentially provide entries towards selective stabilization. […] Here, 14-3-3ζ was titrated to a constant concentration of client peptide (100 nM) and compound (250 μM) to determine the SF250μM values for the particular 14-3-3 PPI. A variety of 14-3-3 binding proteins was represented in this client panel whereby the size and hydrophobicity of the +1 amino acid were varied. […]
chromatography (HisTrap high performance cartridges, Cytiva). […]
0.1% (v/v) Tween20, 0.1% (w/v) BSA). […] Measurements were performed directly after plate preparation, using a Tecan SPARK plate reader at room temperature ( λex: 485±20 nm; λem: 535±25 nm; mirror: automatic; flashes: 30; settle time: 1 ms; gain: optimal; Z -position: calculated from well). […] All data were analyzed using GraphPad Prism (10.0.1) and fitted with a four -parameter logistic model (4PL) to determine binding affinities (dissociation constant, KD). […]
Fluorescence Anisotropy – peptide screen […]

T1 sequence (P63104 whole entry, other chains not shown): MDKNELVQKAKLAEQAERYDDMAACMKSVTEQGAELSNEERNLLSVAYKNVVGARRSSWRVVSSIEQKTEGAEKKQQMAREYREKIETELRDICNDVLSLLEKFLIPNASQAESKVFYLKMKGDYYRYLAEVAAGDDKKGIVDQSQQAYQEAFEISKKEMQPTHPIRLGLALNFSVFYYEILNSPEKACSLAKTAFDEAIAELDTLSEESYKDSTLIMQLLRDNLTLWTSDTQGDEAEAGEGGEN

Which “SF250μM for 14-3-3/Pin1 PPI stabilization” value (100 nM Pin1 peptide, 14-3-3ζ titrated) does the source give for `CCc1ccc(-c2nccn2-c2ccc(C=O)c(Br)c2)cc1` [Compound 18] here?
The value was 3.9.

And the “stabilization of 14-3-3/Pin1 peptide (in words)” value (100 nM peptide, +1 Trp)?
Its value is “no significant stabilization”.
